GI50 data for five compounds are collected here from ChEMBL document CHEMBL1201862, “PubChem BioAssay data set” (2004).

Some test systems named below: MOLT-4; LOX IMVI; KM12; SNB-19; IGROV-1; SK-OV-3; SF-539; M14; SN12C; 786-0; COLO 205; A549; UACC-62; NCI-H226; SK-MEL-5; OVCAR-3.
Assay in all cases: NCI-60 cell line screen, 48 h

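Interpolation was linear, between the two tested concentrations surrounding the appropriate level; five concentrations were tested over 48 hours in 96-well plates. GI50 = concentration required for 50% inhibition of growth.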 Activity calls are given as the source filed them. Rule as the data show it: active = GI50 up to about 1.1 µM and inactive = higher.

`COc1cc2c(c(OC)c1OC)-c1ccc(SC)c(=O)cc1[C@@H](NCc1ccc(F)cc1)CC2`: the GI50 in the assay with MOLT-4, in the assay on LOX IMVI, in the assay with KM12, with SNB-19, in the assay with IGROV-1 and in the assay on SK-OV-3 was < 0.0075 µM (active) each time. The GI50 in the assay on SF-539, in the assay with M14, in the assay on SN12C, with 786-0, with COLO 205 and with A549 was < 0.0075 µM (active) each time. Further, the GI50 with UACC-62, in the assay with NCI-H226, in the assay on SK-MEL-5 and in the assay with OVCAR-3 was < 0.0075 µM (active) throughout.
`CC(C)NC(C)C(C)c1ccccc1` (stereo unspecified): the GI50 in the assay on MOLT-4, in the assay on LOX IMVI, in the assay on KM12, in the assay with SNB-19, in the assay on IGROV-1 and in the assay with SK-OV-3 was > 100 µM (inactive) throughout. The GI50 in the assay on SF-539, in the assay with M14, with SN12C, in the assay with 786-0, in the assay with COLO 205 and in the assay with A549 was > 100 µM (inactive) in each case. Also, the GI50 with UACC-62, in the assay on NCI-H226, with SK-MEL-5 and in the assay on OVCAR-3 was > 100 µM (inactive) in each case.
Take `Cc1ccc(C2=NO[C@@H]3C(=O)N(c4ccc(Cc5ccc(N6C(=O)[C@H]7C(c8ccc(C)cc8)=NO[C@H]7C6=O)cc5)cc4)C(=O)[C@H]23)cc1`: the GI50 in the assay on MOLT-4 is > 10 µM (inactive); in the assay with LOX IMVI, > 100 µM (inactive); in the assay with KM12 it was > 100 µM (inactive); in the assay on IGROV-1, > 100 µM (inactive); in the assay on SK-OV-3, > 100 µM (inactive); with SF-539, > 100 µM (inactive). Also, the GI50 in the assay with M14, in the assay with SN12C, with 786-0, in the assay with COLO 205, with A549 and in the assay with UACC-62 was > 100 µM (inactive) each time. Besides, the GI50 with NCI-H226, in the assay with SK-MEL-5 and in the assay on OVCAR-3 was > 100 µM (inactive) each time.
With `Cc1ccccc1Cn1nc2ccccc2cc1=O`, the GI50 with LOX IMVI, in the assay on KM12, with SNB-19, with IGROV-1, with SK-OV-3 and in the assay on SF-539 was > 100 µM (inactive) throughout. Besides, the GI50 in the assay on M14, with SN12C, in the assay on 786-0, in the assay on COLO 205, in the assay with A549 and in the assay with UACC-62 was > 100 µM (inactive) throughout. Besides, the GI50 in the assay with NCI-H226, in the assay with SK-MEL-5 and in the assay with OVCAR-3 was > 100 µM (inactive) in each case.
Turning to `Cc1nc2cc(N)c(F)cc2[nH]1`, the GI50 with MOLT-4, in the assay on LOX IMVI, with KM12, with SNB-19, with IGROV-1 and in the assay with SK-OV-3 was > 100 µM (inactive) in each case. Also, the GI50 in the assay with SF-539, in the assay on SN12C, in the assay with 786-0, in the assay on COLO 205, with A549 and in the assay with UACC-62 was > 100 µM (inactive) throughout. Further, the GI50 with NCI-H226 and in the assay on SK-MEL-5 was > 100 µM (inactive) throughout.
